The values that follow come from ChEMBL document CHEMBL4152229, “Synthesis and biological evaluation of 2,6-disubstituted-9H-purine, 2,4-disubstitued-thieno[3,2-d]pyrimidine and -7H-pyrrolo[2,3-d]pyrimidine analogues as novel CHK1 inhibitors” (Eur J Med Chem, 2018).

The subject of assay [1] is HT-29. Nature of the assay: Cell cycle arrest in human HT-29 cells assessed as accumulation at G1 phase at 25 nM after 48 hrs by propidium iodide/RNase staining-based flow cytometric analysis (reference value: 62.1%). Format: functional.
The subject of assay [2] is HT-29. The assay can be described thus: Cell cycle arrest in human HT-29 cells assessed as accumulation at S phase at 25 nM after 48 hrs by propidium iodide/RNase staining-based flow cytometric analysis (reference value: 30.9%). It counts as functional. (In general: A flow cytometer gives signals particle by particle.)
The subject of assay [3] is HT-29. The assay can be described thus: Cell cycle arrest in human HT-29 cells assessed as accumulation at G2 phase at 25 nM after 48 hrs by propidium iodide/RNase staining-based flow cytometric analysis (reference value: 7.0%). It counts as functional.
Assay [4] has as its system HT-29. The assay can be described thus: cells. Particulars: Homo sapiens, HT-29, 72 h.
Description: Antiproliferative activity against human HT-29 cells after 72 hrs by MTS assay
The target in assay [5] is T1, Serine/threonine-protein kinase Chk1 (Homo sapiens) (UniProt O14757).
T1 sequence (whole entry): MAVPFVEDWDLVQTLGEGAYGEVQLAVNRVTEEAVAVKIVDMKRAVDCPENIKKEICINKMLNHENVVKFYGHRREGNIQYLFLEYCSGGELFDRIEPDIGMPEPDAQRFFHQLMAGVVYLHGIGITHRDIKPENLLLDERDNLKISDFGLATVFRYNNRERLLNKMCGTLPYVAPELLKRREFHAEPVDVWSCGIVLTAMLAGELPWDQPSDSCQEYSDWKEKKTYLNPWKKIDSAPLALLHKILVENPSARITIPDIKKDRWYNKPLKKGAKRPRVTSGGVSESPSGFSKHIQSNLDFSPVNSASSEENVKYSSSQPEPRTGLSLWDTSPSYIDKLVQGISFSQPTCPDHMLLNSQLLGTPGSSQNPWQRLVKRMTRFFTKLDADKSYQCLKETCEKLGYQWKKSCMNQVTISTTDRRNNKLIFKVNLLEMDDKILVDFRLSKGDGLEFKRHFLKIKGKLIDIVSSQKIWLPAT
The assay can be described thus: Inhibition of CHK1 (unknown origin) at 10 uM using Cdc25 peptide as substrate preincubated for 30 mins followed by substrate addition and measured after 60 mins by ADP-Glo kinase assay. Background: ADP-Glo first removes unused ATP, then detects ADP through luciferase.

The subject of a further assay is HEK293. The assay can be described thus: Antiproliferative activity against human HEK293 cells after 72 hrs by MTS assay. Format: functional. Particulars: HEK293, 72 h. (Tetrazolium dyes change colour on reduction, which living cells bring about.)
Assay [6] has as its target T2, Serine/threonine-protein kinase Chk1 (Homo sapiens, UniProt O14757).
T2 sequence (O14757 whole entry): T1 sequence (whole entry)
The assay can be described thus: Inhibition of CHK1 (unknown origin) using Cdc25 peptide as substrate preincubated for 30 mins followed by substrate addition and measured after 60 mins by ADP-Glo kinase assay.

For the compound `Nc1ccn([C@@H]2O[C@H](CO)[C@@H](O)C2(F)F)c(=O)n1` [GEMCITABINE], the Activity came out at 4.3% in the assay with HT-29 [1], 10.5% with HT-29 [2] and 85.2% in the assay on HT-29 [3].
Usually GI50 stands for the concentration at which growth is held to half of that of the control. A word on the inhibition: it is the share of the control response that was lost under treatment. Low readings indicate little suppression, high ones strong suppression. Broadly, the IC50 is the concentration that inhibits the measured activity by half. Higher therefore signals weaker potency in that assay. As for `Cc1cccc(Nc2nc(N3CCOCC3)c3nc[nH]c3n2)c1`, the GI50 in the assay on HT-29 [4] came to 67.6 µM; in the assay with HEK293, 40.5 µM. Besides, the inhibition in assay [5] is 85.2%. In assay [6], this compound gave a half-inhibitory concentration (IC50) of 1.27 µM.
In the case of `O=C(Nc1cccc(Nc2nc(N3CCOCC3)c3nc[nH]c3n2)c1)C(F)(F)F`, the figures for the concentration for 50% growth inhibition (GI50) in the assay on HT-29 [4] and with HEK293 were 58 µM and 73.6 µM, respectively. Further, the inhibition in assay [5] is 50%.
The like results for `c1ccc(Nc2nc(N3CCOCC3)c3cc[nH]c3n2)cc1` were, in that order, 58.3 µM, 64.7 µM and 44.5%.
With `COc1cccc(Nc2nc(N3CCOCC3)c3nc[nH]c3n2)c1`, the 50% growth inhibitory concentration (GI50) with HT-29 [4] came out at 72.6 µM; in the assay on HEK293 it was 38.7 µM. The inhibition in assay [5] stood at 84.9%. The IC50 in assay [6] turned out to be 3.63 µM.
For the compound `COc1ccc(Nc2nc(N3CCOCC3)c3nc[nH]c3n2)cc1`, the results for the GI50 with HT-29 [4] and in the assay on HEK293 were 74.5 µM and over 100 µM, respectively. Further, the inhibition in assay [5] was found to be 51%.
For `COc1ccccc1Nc1nc(N2CCOCC2)c2nc[nH]c2n1` the same measures were over 100 µM, over 100 µM and 3.8%.
Turning to `N#Cc1cnc(Nc2cc(NC[C@H]3CNCCO3)c(C(F)(F)F)cn2)cn1` [SRA-737], the GI50 in the assay with HT-29 [4] worked out at 9.22 µM; in the assay on HEK293 it was 1.39 µM.
As for `c1ccc(Nc2nc(N3CCOCC3)c3sccc3n2)cc1`, the GI50 is 54.5 µM with HT-29 [4] and over 100 µM in the assay with HEK293.
For the compound `c1ccc2ncc(Nc3nc(N4CCOCC4)c4nc[nH]c4n3)cc2c1`, the GI50 with HT-29 [4] turned out to be 25.1 µM; in the assay on HEK293 it was 22.3 µM. This compound also had an inhibition in assay [5] of 63.1%.
As to `c1cncc(Nc2nc(N3CCOCC3)c3nc[nH]c3n2)c1`, the values for the GI50 with HT-29 [4] and in the assay on HEK293 were over 100 µM and 33.7 µM, respectively. The inhibition in assay [5] amounted to 82.2%. The compound also had an IC50 in assay [6] of 8.06 µM.
As for `FC(F)(F)Oc1cccc(Nc2nc(N3CCOCC3)c3nc[nH]c3n2)c1`, the 50% growth inhibitory concentration (GI50) with HT-29 [4] and in the assay on HEK293 was over 100 µM each time. The same compound yielded an inhibition in assay [5] of 31.6%.
Consider `NC(=O)c1ccc(Nc2nc(N3CCOCC3)c3nc[nH]c3n2)cn1`, for which the GI50 with HT-29 [4] and in the assay with HEK293 was 72.2 µM throughout. Also, in assay [5], the inhibition amounted to 80.3%. In addition, the 50% inhibitory concentration (IC50) in assay [6] worked out at 9.87 µM.
Regarding `FC(F)(F)c1cccc(Nc2nc(N3CCOCC3)c3nc[nH]c3n2)c1`, the results for the GI50 in the assay with HT-29 [4] and in the assay on HEK293 were 29.1 µM and 31.4 µM, respectively. For the same compound, the inhibition in assay [5] worked out at 61.3%.
For `Clc1cccc(Nc2nc(N3CCOCC3)c3nc[nH]c3n2)c1`, the values for the GI50 in the assay on HT-29 [4] and in the assay with HEK293 were 34.8 µM and 38.4 µM, respectively. Also, in assay [5], the inhibition was 77.3%. Besides, 2.83 µM corresponded to half-maximal inhibition in assay [6] (IC50).
Turning to `c1cnc(Nc2nc(N3CCOCC3)c3nc[nH]c3n2)cn1`, the GI50 in the assay on HT-29 [4] is over 100 µM; with HEK293, 27.2 µM. This compound also yielded an inhibition in assay [5] of 38.2%.
For `COc1ccc(Nc2nc(N3CCOCC3)c3cc[nH]c3n2)cc1` the same measures were 38.4 µM, 63.6 µM and 16.7%.
As to `Fc1ccc(Nc2nc(NC3CCOCC3)c3nc[nH]c3n2)cc1`, the GI50 was 86.9 µM in the assay on HT-29 [4] and over 100 µM with HEK293. This compound returned an inhibition in assay [5] of 37.2%.
Turning to `c1ccc(Nc2nc(N3CCOCC3)c3nc[nH]c3n2)cc1`, the figures for the GI50 in the assay on HT-29 [4] and with HEK293 were over 100 µM and 60.2 µM, respectively. Besides, the inhibition in assay [5] stood at 82.4%. In assay [6], this compound showed a 50% inhibitory concentration (IC50) of 2.57 µM.
Regarding `COc1cc(Nc2nc(N3CCOCC3)c3nc[nH]c3n2)cc(OC)c1OC`, the 50% growth inhibitory concentration (GI50) in the assay on HT-29 [4] and with HEK293 was over 100 µM throughout. Moreover, the inhibition in assay [5] came out at 35.8%.
Consider `COc1cc(Nc2nc(N3CCOCC3)c3sccc3n2)cc(OC)c1OC`, for which the values for the GI50 in the assay on HT-29 [4] and with HEK293 were 31.6 µM and over 100 µM, respectively.
As for `Fc1cccc(Nc2nc(N3CCOCC3)c3nc[nH]c3n2)c1`, the GI50 with HT-29 [4] was determined as 60.8 µM; in the assay with HEK293, 33.7 µM. This compound also displayed an inhibition in assay [5] of 92%. In addition, in assay [6], the half-inhibitory concentration (IC50) was 3.6 µM.
For `NC(=O)Nc1cc(-c2cccc(F)c2)sc1C(=O)N[C@H]1CCCNC1` [AZD-7762], the GI50 in the assay on HT-29 [4] worked out at 0.167 µM; in the assay with HEK293, 0.236 µM.
For `COc1cc(Nc2nc(N3CCOCC3)c3cc[nH]c3n2)cc(OC)c1OC`, the GI50 with HT-29 [4] is 50.4 µM; in the assay on HEK293 it was 58.7 µM. Besides, the inhibition in assay [5] amounted to 26.9%.
As to `COc1ccc(Nc2nc(N3CCOCC3)c3sccc3n2)cc1`, the concentration for 50% growth inhibition (GI50) in the assay on HT-29 [4] was 29.7 µM; with HEK293, over 100 µM.
As for `c1ccc(Nc2nc(NC3CCOCC3)c3nc[nH]c3n2)cc1`, the GI50 in the assay on HT-29 [4] came to 80.3 µM; in the assay on HEK293, 31.5 µM. Also, in assay [5], the inhibition came out at 61.5%.
